{
  "source": "paper PMC5666424",
  "about": "“Marine-Derived 2-Aminoimidazolone Alkaloids. Leucettamine B-Related Polyandrocarpamines Inhibit Mammalian and Protozoan DYRK & CLK Kinases” (Marine Drugs, 2017)",
  "test_in_all_cases": "KinomeScan",
  "format_in_all_cases": "binding",
  "conditions_in_all_cases": "1 μM",
  "key": {"CDK7": {"target": "T1, CDK7 (Homo sapiens, UniProt P50613)", "T1 construct": "purchased DiscoverX (KINOMEscan)"}, "DLK": {"target": "T2, DLK (Homo sapiens, UniProt Q12852)", "T2 construct": "purchased DiscoverX (KINOMEscan)"}, "ERBB2": {"target": "T3, ERBB2 (Homo sapiens, UniProt P04626)", "T3 construct": "purchased DiscoverX (KINOMEscan)"}, "CSNK2A1": {"target": "T4, CSNK2A1 (Homo sapiens, UniProt P68400)", "T4 construct": "purchased DiscoverX (KINOMEscan)"}, "JNK1": {"target": "T5, JNK1 (Homo sapiens, UniProt P45983)", "T5 construct": "purchased DiscoverX (KINOMEscan)"}, "NLK": {"target": "T6, NLK (Homo sapiens, UniProt Q9UBE8)", "T6 construct": "purchased DiscoverX (KINOMEscan)"}, "AKT2": {"target": "T7, AKT2 (Homo sapiens, UniProt P31751)", "T7 construct": "purchased DiscoverX (KINOMEscan)"}, "STK35": {"target": "T8, STK35 (Homo sapiens, UniProt Q8TDR2)", "T8 construct": "purchased DiscoverX (KINOMEscan)"}, "TEC": {"target": "T9, TEC (Homo sapiens, UniProt P42680)", "T9 construct": "purchased DiscoverX (KINOMEscan)"}, "CHEK2": {"target": "T10, CHEK2 (Homo sapiens, UniProt O96017)", "T10 construct": "purchased DiscoverX (KINOMEscan)"}, "ERK8": {"target": "T11, ERK8 (Homo sapiens, UniProt Q8TD08)", "T11 construct": "purchased DiscoverX (KINOMEscan)"}, "MST4": {"target": "T12, MST4 (Homo sapiens, UniProt Q9P289)", "T12 construct": "purchased DiscoverX (KINOMEscan)"}, "CSNK1G2": {"target": "T13, CSNK1G2 (Homo sapiens, UniProt P78368)", "T13 construct": "purchased DiscoverX (KINOMEscan)"}, "ACVR1": {"target": "T14, ACVR1 (Homo sapiens, UniProt Q04771)", "T14 construct": "purchased DiscoverX (KINOMEscan)", "T14 sequence (Q04771 21-509)": "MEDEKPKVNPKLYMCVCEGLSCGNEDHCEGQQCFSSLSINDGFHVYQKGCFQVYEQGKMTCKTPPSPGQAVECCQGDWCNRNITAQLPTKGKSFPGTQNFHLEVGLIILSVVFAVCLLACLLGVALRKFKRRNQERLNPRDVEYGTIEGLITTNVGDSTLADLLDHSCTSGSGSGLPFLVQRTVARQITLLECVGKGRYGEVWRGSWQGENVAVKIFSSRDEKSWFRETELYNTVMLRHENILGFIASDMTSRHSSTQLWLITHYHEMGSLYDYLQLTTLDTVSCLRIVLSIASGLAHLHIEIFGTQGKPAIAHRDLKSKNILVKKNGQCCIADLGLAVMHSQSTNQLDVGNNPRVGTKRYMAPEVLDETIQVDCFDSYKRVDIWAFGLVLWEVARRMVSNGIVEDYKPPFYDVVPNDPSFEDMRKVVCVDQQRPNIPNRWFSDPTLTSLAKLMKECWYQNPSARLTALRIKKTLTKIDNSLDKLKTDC"}, "FAK": {"target": "T15, FAK (Homo sapiens, UniProt Q05397)", "T15 construct": "purchased DiscoverX (KINOMEscan)"}, "TBK1": {"target": "T16, TBK1 (Homo sapiens, UniProt Q9UHD2)", "T16 construct": "purchased DiscoverX (KINOMEscan)"}, "MST1": {"target": "T17, MST1 (Homo sapiens, UniProt Q13043)", "T17 construct": "purchased DiscoverX (KINOMEscan)"}, "CSNK1E": {"target": "T18, CSNK1E (Homo sapiens, UniProt P49674)", "T18 construct": "purchased DiscoverX (KINOMEscan)"}, "VRK2": {"target": "T19, VRK2 (Homo sapiens, UniProt Q86Y07)", "T19 construct": "purchased DiscoverX (KINOMEscan)"}, "CAMK2A": {"target": "T20, CAMK2A (Homo sapiens, UniProt Q9UQM7)", "T20 construct": "purchased DiscoverX (KINOMEscan)"}, "FGFR4": {"target": "T21, FGFR4 (Homo sapiens, UniProt P22455)", "T21 construct": "purchased DiscoverX (KINOMEscan)", "T21 sequence (P22455 22-802)": "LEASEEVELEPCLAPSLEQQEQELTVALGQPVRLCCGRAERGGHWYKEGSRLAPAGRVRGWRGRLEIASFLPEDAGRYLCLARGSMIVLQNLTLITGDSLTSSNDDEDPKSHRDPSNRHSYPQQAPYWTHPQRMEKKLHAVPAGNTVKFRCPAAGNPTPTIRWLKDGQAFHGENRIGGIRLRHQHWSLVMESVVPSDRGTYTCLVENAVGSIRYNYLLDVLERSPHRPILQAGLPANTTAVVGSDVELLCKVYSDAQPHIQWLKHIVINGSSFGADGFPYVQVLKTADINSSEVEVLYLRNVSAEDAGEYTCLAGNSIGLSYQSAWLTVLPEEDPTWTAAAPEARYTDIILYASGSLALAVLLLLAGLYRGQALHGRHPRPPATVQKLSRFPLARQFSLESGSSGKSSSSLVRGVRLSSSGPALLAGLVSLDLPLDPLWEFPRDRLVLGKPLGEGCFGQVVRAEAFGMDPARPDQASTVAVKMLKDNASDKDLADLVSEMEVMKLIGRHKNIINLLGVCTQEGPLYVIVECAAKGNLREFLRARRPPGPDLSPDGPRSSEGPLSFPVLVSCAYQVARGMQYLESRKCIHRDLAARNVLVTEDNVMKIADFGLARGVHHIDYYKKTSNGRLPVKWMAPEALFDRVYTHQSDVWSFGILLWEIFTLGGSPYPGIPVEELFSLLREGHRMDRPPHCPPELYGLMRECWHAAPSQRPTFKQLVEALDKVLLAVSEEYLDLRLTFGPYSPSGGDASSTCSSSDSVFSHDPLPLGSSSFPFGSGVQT"}, "MST2": {"target": "T22, MST2 (Homo sapiens, UniProt Q13188)", "T22 construct": "purchased DiscoverX (KINOMEscan)"}, "GSK3B": {"target": "T23, GSK3B (Homo sapiens, UniProt P49841)", "T23 construct": "purchased DiscoverX (KINOMEscan)"}, "ARK5": {"target": "T24, ARK5 (Homo sapiens, UniProt O60285)", "T24 construct": "purchased DiscoverX (KINOMEscan)"}, "STK39": {"target": "T25, STK39 (Homo sapiens, UniProt Q9UEW8)", "T25 construct": "purchased DiscoverX (KINOMEscan)"}, "BRK": {"target": "T26, BRK (Homo sapiens, UniProt Q13882)", "T26 construct": "purchased DiscoverX (KINOMEscan)"}, "CDKL3": {"target": "T27, CDKL3 (Homo sapiens, UniProt Q8IVW4)", "T27 construct": "purchased DiscoverX (KINOMEscan)"}, "KIT(D816H)": {"target": "T28, KIT(D816H) (Homo sapiens, UniProt P10721, D816H)", "T28 construct": "purchased DiscoverX (KINOMEscan)", "T28 sequence (P10721 26-976 D816H)": "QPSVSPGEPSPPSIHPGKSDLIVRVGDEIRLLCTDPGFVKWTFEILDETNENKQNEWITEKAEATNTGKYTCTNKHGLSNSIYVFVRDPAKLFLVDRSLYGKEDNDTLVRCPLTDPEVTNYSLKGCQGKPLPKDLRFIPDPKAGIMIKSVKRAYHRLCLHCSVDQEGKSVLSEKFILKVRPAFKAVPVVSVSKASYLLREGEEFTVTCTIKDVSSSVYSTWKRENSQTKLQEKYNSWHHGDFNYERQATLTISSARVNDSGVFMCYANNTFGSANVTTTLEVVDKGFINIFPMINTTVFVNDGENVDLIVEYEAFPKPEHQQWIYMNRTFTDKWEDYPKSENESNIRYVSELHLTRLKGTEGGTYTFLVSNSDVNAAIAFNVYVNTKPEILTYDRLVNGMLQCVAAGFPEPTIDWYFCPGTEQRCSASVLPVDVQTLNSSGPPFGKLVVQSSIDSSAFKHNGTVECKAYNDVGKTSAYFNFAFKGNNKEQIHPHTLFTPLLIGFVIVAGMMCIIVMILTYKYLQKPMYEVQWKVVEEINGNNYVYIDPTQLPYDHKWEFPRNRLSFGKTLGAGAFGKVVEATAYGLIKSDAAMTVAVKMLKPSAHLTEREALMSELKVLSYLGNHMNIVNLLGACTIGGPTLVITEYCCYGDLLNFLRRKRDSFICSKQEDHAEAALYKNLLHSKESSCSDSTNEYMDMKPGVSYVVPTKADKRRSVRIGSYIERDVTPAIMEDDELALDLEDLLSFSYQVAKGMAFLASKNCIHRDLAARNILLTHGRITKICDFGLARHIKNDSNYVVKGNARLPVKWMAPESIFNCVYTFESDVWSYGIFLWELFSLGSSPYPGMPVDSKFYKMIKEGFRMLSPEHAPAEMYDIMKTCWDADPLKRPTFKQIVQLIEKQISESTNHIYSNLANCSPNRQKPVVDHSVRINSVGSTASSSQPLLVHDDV"}, "HIPK2": {"target": "T29, HIPK2 (Homo sapiens, UniProt Q9H2X6)", "T29 construct": "purchased DiscoverX (KINOMEscan)"}, "MAP4K4": {"target": "T30, MAP4K4 (Homo sapiens, UniProt O95819)", "T30 construct": "purchased DiscoverX (KINOMEscan)"}, "CDC2L2": {"target": "T31, CDC2L2 (Homo sapiens, UniProt Q9UQ88)", "T31 construct": "purchased DiscoverX (KINOMEscan)"}, "EPHA4": {"target": "T32, EPHA4 (Homo sapiens, UniProt P54764)", "T32 construct": "purchased DiscoverX (KINOMEscan)"}, "[1]": {"target": "T33, EGFR(L747-E749del, A750P) (Homo sapiens, UniProt P00533, A750P/DEL747-749)", "T33 construct": "purchased DiscoverX (KINOMEscan)"}, "EPHB6": {"target": "T34, EPHB6 (Homo sapiens, UniProt O15197)", "T34 construct": "purchased DiscoverX (KINOMEscan)", "T34 sequence (O15197 32-1021)": "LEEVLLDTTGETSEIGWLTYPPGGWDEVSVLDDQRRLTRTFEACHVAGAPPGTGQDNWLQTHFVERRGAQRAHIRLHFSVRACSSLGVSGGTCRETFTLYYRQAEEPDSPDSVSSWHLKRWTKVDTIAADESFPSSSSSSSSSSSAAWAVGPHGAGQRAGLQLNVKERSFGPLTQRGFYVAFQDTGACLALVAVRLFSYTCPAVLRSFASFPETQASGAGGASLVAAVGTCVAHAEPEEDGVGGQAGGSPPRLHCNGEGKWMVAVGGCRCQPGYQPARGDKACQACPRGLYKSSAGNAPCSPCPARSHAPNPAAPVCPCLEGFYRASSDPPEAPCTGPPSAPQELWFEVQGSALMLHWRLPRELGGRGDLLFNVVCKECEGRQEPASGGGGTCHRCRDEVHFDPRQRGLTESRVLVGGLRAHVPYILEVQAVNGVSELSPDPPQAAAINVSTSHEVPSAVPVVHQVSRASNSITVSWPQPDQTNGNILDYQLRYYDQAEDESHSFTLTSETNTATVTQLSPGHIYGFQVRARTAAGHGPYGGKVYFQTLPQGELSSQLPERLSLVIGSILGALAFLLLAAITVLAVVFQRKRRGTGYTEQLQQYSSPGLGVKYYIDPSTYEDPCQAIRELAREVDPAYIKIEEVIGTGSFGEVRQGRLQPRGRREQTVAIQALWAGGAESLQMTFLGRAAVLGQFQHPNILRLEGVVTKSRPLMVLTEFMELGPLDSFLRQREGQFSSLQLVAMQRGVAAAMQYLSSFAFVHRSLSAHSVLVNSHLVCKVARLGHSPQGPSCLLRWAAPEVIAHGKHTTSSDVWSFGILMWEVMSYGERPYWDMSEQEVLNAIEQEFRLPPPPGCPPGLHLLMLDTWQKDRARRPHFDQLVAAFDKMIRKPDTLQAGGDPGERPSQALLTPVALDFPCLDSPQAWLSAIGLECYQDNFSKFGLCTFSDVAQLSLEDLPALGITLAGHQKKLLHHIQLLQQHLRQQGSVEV"}, "TLK2": {"target": "T35, TLK2 (Homo sapiens, UniProt Q86UE8)", "T35 construct": "purchased DiscoverX (KINOMEscan)"}, "TYRO3": {"target": "T36, TYRO3 (Homo sapiens, UniProt Q06418)", "T36 construct": "purchased DiscoverX (KINOMEscan)", "T36 sequence (Q06418 41-890)": "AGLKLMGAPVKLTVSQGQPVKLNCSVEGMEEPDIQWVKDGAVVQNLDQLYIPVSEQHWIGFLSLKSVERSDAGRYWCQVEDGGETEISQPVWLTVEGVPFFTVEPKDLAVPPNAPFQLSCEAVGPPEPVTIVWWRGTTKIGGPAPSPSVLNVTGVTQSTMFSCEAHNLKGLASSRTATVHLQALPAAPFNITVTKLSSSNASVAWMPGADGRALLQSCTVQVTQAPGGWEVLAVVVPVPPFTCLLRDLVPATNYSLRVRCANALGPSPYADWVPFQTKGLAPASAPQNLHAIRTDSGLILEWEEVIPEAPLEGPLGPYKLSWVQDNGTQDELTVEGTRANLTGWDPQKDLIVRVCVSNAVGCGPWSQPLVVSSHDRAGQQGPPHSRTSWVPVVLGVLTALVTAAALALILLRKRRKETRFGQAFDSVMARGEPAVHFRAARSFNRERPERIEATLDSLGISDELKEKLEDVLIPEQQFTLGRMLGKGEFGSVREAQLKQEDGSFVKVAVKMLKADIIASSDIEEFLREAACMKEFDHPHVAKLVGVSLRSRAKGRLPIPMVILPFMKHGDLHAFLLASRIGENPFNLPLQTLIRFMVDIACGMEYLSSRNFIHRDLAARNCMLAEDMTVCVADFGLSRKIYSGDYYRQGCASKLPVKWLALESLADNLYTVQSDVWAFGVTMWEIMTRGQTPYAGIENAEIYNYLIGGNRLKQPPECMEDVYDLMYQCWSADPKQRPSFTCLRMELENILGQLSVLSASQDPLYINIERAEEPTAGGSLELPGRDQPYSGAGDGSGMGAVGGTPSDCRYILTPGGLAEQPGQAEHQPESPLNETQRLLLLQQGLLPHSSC"}, "EPHA7": {"target": "T37, EPHA7 (Homo sapiens, UniProt Q15375)", "T37 construct": "purchased DiscoverX (KINOMEscan)", "T37 sequence (Q15375 28-998)": "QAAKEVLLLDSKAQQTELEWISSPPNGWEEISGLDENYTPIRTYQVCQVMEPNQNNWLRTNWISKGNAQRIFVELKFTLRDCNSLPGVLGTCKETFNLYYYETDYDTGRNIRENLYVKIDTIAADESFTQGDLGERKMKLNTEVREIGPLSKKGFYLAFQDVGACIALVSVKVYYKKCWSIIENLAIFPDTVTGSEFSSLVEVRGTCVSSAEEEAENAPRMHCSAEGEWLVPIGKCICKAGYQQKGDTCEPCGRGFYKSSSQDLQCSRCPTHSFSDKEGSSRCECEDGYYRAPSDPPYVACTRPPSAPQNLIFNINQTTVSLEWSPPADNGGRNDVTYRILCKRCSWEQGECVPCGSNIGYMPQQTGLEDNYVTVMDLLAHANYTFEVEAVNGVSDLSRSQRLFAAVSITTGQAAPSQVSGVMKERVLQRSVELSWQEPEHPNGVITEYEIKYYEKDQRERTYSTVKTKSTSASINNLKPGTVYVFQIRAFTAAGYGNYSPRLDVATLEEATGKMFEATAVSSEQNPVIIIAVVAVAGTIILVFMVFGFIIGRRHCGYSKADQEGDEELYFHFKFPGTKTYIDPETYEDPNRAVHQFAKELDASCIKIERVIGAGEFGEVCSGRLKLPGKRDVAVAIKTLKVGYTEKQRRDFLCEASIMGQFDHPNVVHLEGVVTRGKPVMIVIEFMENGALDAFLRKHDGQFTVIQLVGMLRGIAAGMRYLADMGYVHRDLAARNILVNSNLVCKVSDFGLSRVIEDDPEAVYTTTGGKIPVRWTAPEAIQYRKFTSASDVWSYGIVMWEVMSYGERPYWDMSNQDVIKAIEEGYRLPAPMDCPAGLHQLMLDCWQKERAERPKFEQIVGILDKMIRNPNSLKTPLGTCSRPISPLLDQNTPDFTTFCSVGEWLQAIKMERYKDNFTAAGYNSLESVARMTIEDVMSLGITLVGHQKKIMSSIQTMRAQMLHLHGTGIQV"}, "FER": {"target": "T38, FER (Homo sapiens, UniProt P16591)", "T38 construct": "purchased DiscoverX (KINOMEscan)"}},
  "data": [
    {"molecule": "COc1cc(/C=C2\\N=C(N)NC2=O)ccc1O", "note": "[Polyandrocarpamine A]", "values": [
      {"measurement": "Score", "setting": "CDK7", "value": 100},
      {"measurement": "Score", "setting": "DLK", "value": 100},
      {"measurement": "Score", "setting": "ERBB2", "value": 100},
      {"measurement": "Score", "setting": "CSNK2A1", "value": 12},
      {"measurement": "Score", "setting": "JNK1", "value": 100},
      {"measurement": "Score", "setting": "NLK", "value": 100},
      {"measurement": "Score", "setting": "AKT2", "value": 100},
      {"measurement": "Score", "setting": "STK35", "value": 95},
      {"measurement": "Score", "setting": "TEC", "value": 98},
      {"measurement": "Score", "setting": "CHEK2", "value": 100},
      {"measurement": "Score", "setting": "ERK8", "value": 67},
      {"measurement": "Score", "setting": "MST4", "value": 100},
      {"measurement": "Score", "setting": "CSNK1G2", "value": 100},
      {"measurement": "Score", "setting": "ACVR1", "value": 100},
      {"measurement": "Score", "setting": "FAK", "value": 94},
      {"measurement": "Score", "setting": "TBK1", "value": 100},
      {"measurement": "Score", "setting": "MST1", "value": 70},
      {"measurement": "Score", "setting": "CSNK1E", "value": 87},
      {"measurement": "Score", "setting": "VRK2", "value": 100},
      {"measurement": "Score", "setting": "CAMK2A", "value": 98},
      {"measurement": "Score", "setting": "FGFR4", "value": 98},
      {"measurement": "Score", "setting": "MST2", "value": 100},
      {"measurement": "Score", "setting": "GSK3B", "value": 100},
      {"measurement": "Score", "setting": "ARK5", "value": 71},
      {"measurement": "Score", "setting": "STK39", "value": 100},
      {"measurement": "Score", "setting": "BRK", "value": 100},
      {"measurement": "Score", "setting": "CDKL3", "value": 100},
      {"measurement": "Score", "setting": "KIT(D816H)", "value": 100},
      {"measurement": "Score", "setting": "HIPK2", "value": 50},
      {"measurement": "Score", "setting": "MAP4K4", "value": 98},
      {"measurement": "Score", "setting": "CDC2L2", "value": 100},
      {"measurement": "Score", "setting": "EPHA4", "value": 83},
      {"measurement": "Score", "setting": "[1]", "value": 100},
      {"measurement": "Score", "setting": "EPHB6", "value": 97},
      {"measurement": "Score", "setting": "TLK2", "value": 100},
      {"measurement": "Score", "setting": "TYRO3", "value": 100},
      {"measurement": "Score", "setting": "EPHA7", "value": 100},
      {"measurement": "Score", "setting": "FER", "value": 100}
    ]}
  ]
}
